# Assay results taken from US6184374A, “Targeted cytotoxic anthracycline analogs” (priority 1998, dated 2001).
# Read-outs that look alike come from different tables or passages of the source. Where a SMILES comes first, the peptide text is derived from it. Bridges are numbered along the chain shown (N, C = ends). [ ]: non-standard residue; d: D form.
# What was measured:
# [1] = test system: MIIA PaCa-2 Human Pancreatic Cancer Cell Line; assay: Growth of MIIA PaCa-2 cells in vitro (crystal violet T/C); assay type: cell-based
# Source text: (§1) For the evaluation of the activity of the analogs, a colorimetric cytotoxicity assay in microtitration plates was used based on quantification of biomass by staining cells with crystal violet, which correlates very well with determination of cell numbers. (Reile et al.; Anal. Biochem. 187, 262-267, 1990; Bernhardt G. et al, J. Cancer Res. Clin. Oncol. (1992), 118, 35-43; Spruss Th. et al, J. Cancer Res. Clin. Oncol 117, 435-443, 1991; Gillies, R. J., Anal. Biochem. 159, 109-113, 1986; Kueng, W. et al.; Anal. Biochem., 182 16-19, 1989.)
# (§2) One to two days after seeding cells in 96-well plates the culture medium is exchanged with fresh medium containing the compounds to be tested and fresh medium only for the control cultures. After varying time of incubation, cells are fixed with glutaric dialdehyde and stored under […] at 4° C. until the end of the experiment. Cells are stained with crystal violet and bound stain is extracted with 70% aqueous EtOH. Optical density is measured with EIA Reader (Bio-Tek Instruments) or Biomek 1000 (Beckman) at 590 nm or 600 nm, respectively. Each data point represents the mean value of eight culture wells. T/C values are calculated as T/C=(T-C0)/(C-C0) where T=optical density of treated cultures, C=optical density of control (untreated) cultures, C0 =optical density of cultures at the start of incubation (t=0).
# Cells were incubated in RPMI 1640 media containing 10% fetal bovine serum on 96 well plates. [drawing 8]
# [2] = test system: growth hormone release from superfused rat pituitary cells; assay: Inhibition of hGH-RH(1-29)NH2 induced GH release, rat pituitary superfusion system; assay type: cell-based
# Protocol: Accordingly, this method was used to compare the cytotoxic somatostatin analogs of the present invention to their parent carrier molecules with respect to their hormonal activities.
# In rat pituitary superfusion system, the somatostatin analogs were administered for 3 min at 1 nM dose simultaneously with 1 nM hGH-RH(1-29)NH2. The infusion of the somatostatin analogs was maintained for another 6 min. GH responses to 3 min administration of 1 nM hGH-RH(1-29)NH2 were determined during the perfusion of the somatostatin analogs (0 min) and 30, 60 and 90 min after the administration stopped.
# [3] = test system: estrogen independent MXT mouse mammary cancers; assay: Single treatment of estrogen independent MXT mouse mammary cancers (KS-55); assay type: in vivo
# Protocol: In order to determine the maximum tolerated doses and compare the effects, MXT (3.2) ovex tumor pieces (1 mm^3) were implanted s.c. in female B6 D2 F1 mice. One day after transplantation the mice were randomly divided into groups of five animals and they were treated with a single injection i.p. The groups and doses are shown in the Table 25-1. […] The compounds were dissolved in 0.1% TFA (pH: 2.0). Tumor volume was measured on days 10, 13, 17, and 20.
# [4] = test system: MCF-7 human mammary carcinoma cell line; assay type: cell-based
# Source text: (§3) MXT estrogen-independen mouse mammary carcinoma cell line was obtained from Dr. Gunter Berndhart, University of Regensburg, Germany. All the other cell lines used in the determination of the antiproliferative activity of the compounds of this invention were obtained from the American Type Culture Collection (ATCC).
# as §1, §2
# Cells were incubated in IMEM media containing 5% Hl:DCC-FBS (heat inactivated dextran coated charcoal treated fetal bovine serum) on 96 well plates. Relative cell number in treated and control plates was determined by the crystal violet staining method and was expressed as T/C values where T/C=T-C0 /C-C0×100 [T=absorbance of treated cultures, C= absorbance of control cultures, C0 =absorbance of cultures at the start of incubation (t=0). The measured absorbance is proportionate to the cell number.]
# [5] = test system: MXT estrogen independent mouse mammary carcinoma cell line; assay: In vitro cytotoxic activity, crystal violet colorimetric assay on MXT; assay type: cell-based
# Source text: as §3, §1, §2
# [6] = test system: CFPAC-1 Human Pancreatic Cancer Cell; assay: Growth of CFPAC-1 cells in vitro (crystal violet T/C); assay type: cell-based
# Source text: as §1, §2
# [7] = test system: estrogen independent MXT mouse mammary cancers; assay: Treatment of estrogen independent MXT mouse mammary cancers (KS-49); assay type: in vivo; settings: for Average survival: 520 nmol/inj. i.p., 3 weeks, total 1560 nmol (Group 13)
# Source text: In order to compare the tumor inhibitory activity of cytotoxic doxorubicin derivative, Q6 and its targeted cytotoxic peptide conjugate, Q6^14 gL as well as the well known antineoplastic agent, DOX and to determine the optimal way of administration and the nontoxic doses, LH-RH receptor positive MXT (3.2) ovex tumor pieces (1 mm^3) were implanted s. c. in female B6 D2 F1 mice. One day after transplantation the mice were randomly divided into groups of five animals and the treatment started. The compounds were dissolved in 0.1% trifluoroacetic acid (pH 2) and given intraperitoneally.
# [8] = test system: estrogen independent MXT mouse mammary cancers; assay: Earlier experiment with Q2 daily dosing (tumor growth, survival)
# [9] = test system: estrogen independent MXT mouse mammary cancers; assay: Effect of cytotoxic LH-RH analogs on estrogen independent MXT mouse mammary cancers (KS-47); assay type: in vivo
# Protocol: MXT (3.2) ovex tumor pieces (1 mm^3) were transplanted in female B6 D2 F1 mice. The treatment started one day after transplantation and was continued for 12 days by i.p. injections once a day. Tumors were measured on days 10, 14 and 18, and tumor volume was calculated.
# [10] = 0 min (during perfusion of 1 nM somatostatin analog), percentage of GH release before analog
# [11] = 30 min after infusion of 1 nM somatostatin analog
# [12] = 60 min after infusion of 1 nM somatostatin analog
# [13] = single i.p. injection 650 nmol/20 g
# [14] = single i.p. injection 700 nmol/20 g
# [15] = single i.p. injection 750 nmol/20 g
# [16] = Table 17-1, 10^-8 M; incubation 70 hr
# [17] = Table 17-1, 10^-8 M; incubation 120 hr
# [18] = Table 17-1; 3 × 10^-8 M; incubation 70 hr
# [19] = Table 17-1; 3 × 10^-8 M; incubation 120 hr
# [20] = Table 17-1; 10^-8 M; incubation 70 hr
# [21] = Table 17-1; 10^-8 M; incubation 120 hr
# [22] = daily dose of 30 nmol (equimolar) i.p. for 12 days
smiles,measurement,setting,value
CC(C)[C@@H]1NC(=O)[C@H](CCCCN)NC(=O)[C@@H](Cc2c[nH]c3ccccc23)NC(=O)[C@H](Cc2ccc(O)cc2)NC(=O)[C@@H](NC(=O)[C@H](N)Cc2ccccc2)CSSC[C@@H](C(=O)N[C@H](C(N)=O)[C@@H](C)O)NC1=O [Compound S-121],T/C Value,"[1]; 10^-6 M, incubation 28 h",76
same,T/C Value,"[1]; 10^-6 M, incubation 76 h",96
same,GH release induced by 3 min administration of 1 nM hGH-RH(1-29)NH2,[2]; [10],0%
same,GH release induced by 3 min administration of 1 nM hGH-RH(1-29)NH2,[2]; [11],90%
same,GH release induced by 3 min administration of 1 nM hGH-RH(1-29)NH2,[2]; [12],89.7%
C[C@@H](O)[C@H](NC(=O)[C@@H]1CSSC[C@H](NC(=O)[C@H](N)Cc2c[nH]c3ccccc23)C(=O)N[C@@H](Cc2ccccc2)C(=O)N[C@H](Cc2c[nH]c3ccccc23)C(=O)N[C@@H](CCCCN)C(=O)N[C@@H]([C@@H](C)O)C(=O)N1)C(N)=O [Compound S-98] (H-[dW]CF[dW]KTCT-NH2; disulfide 2-7),T/C Value,"[1]; 10^-6 M, incubation 28 h",96
same,T/C Value,"[1]; 10^-6 M, incubation 76 h",98
same,GH release induced by 3 min administration of 1 nM hGH-RH(1-29)NH2,[2]; [10],2.9%
same,GH release induced by 3 min administration of 1 nM hGH-RH(1-29)NH2,[2]; [11],94.7%
same,GH release induced by 3 min administration of 1 nM hGH-RH(1-29)NH2,[2]; [12],117.6%
"COc1cccc2c1C(=O)c1c(O)c3c(c(O)c1C2=O)C[C@@](O)(C(=O)CO)C[C@@H]3O[C@H]1C[C@H](N)[C@H](O)[C@H](C)O1 [Doxorubicin, doxorubicin]",Suppression of tumor growth,[3]; dose of 650 nmol/20 g mouse (as printed in text),significantly less effective
same,Toxicity,[3]; single dose of 650 nmol/20 g mouse (as printed in text),highly toxic
same,Average survival,[3]; [13],13.6 days
same,Number of tumorous mice/number of surviving mice Day 10,[3]; [13],3/3
same,Number of tumorous mice/number of surviving mice Day 13,[3]; [13],2/2
same,Number of tumorous mice/number of surviving mice Day 17,[3]; [13],1/1
same,Number of tumorous mice/number of surviving mice Day 20,[3]; [13],1/1
same,Average survival,[3]; [14],15.2 days
same,Number of tumorous mice/number of surviving mice Day 10,[3]; [14],2/3
same,Number of tumorous mice/number of surviving mice Day 13,[3]; [14],2/3
same,Number of tumorous mice/number of surviving mice Day 17,[3]; [14],2/2
same,Average survival,[3]; [15],7.8 days
same,Number of tumorous mice/number of surviving mice Day 10,[3]; [15],1/1
same,T/C Value,"[1]; 10^-6 M, incubation 28 h",-28
same,T/C Value,"[1]; 10^-6 M, incubation 76 h",-7
same,T/C Value,"[1]; 10^-7 M, incubation 28 h",64
same,T/C Value,"[1]; 10^-7 M, incubation 76 h",10
same,T/C Value,"[1]; 10^-8 M, incubation 28 h",95
same,T/C Value,"[1]; 10^-8 M, incubation 76 h",71
same,T/C Value,[4]; [16],54
same,T/C Value,[4]; [17],33
same,T/C Value,[4]; [18],82
same,T/C Value,[4]; [19],66
same,T/C Value,[4]; [20],98
same,T/C Value,[4]; [21],95
same,T/C Value on MCF-7 Cell Line,[4]; Table 18-1; 3 × 10^-8 M; 70 hr,82
same,T/C Value on MCF-7 Cell Line,[4]; Table 18-1; 3 × 10^-8 M; 120 hr,66
same,T/C Value on MCF-7 Cell Line,[4]; Table 18-1; 10^-7 M; 70 hr,54
same,T/C Value on MCF-7 Cell Line,[4]; Table 18-1; 10^-7 M; 120 hr,33
same,T/C Value on MCF-7 Cell Line,[4]; Table 18-1; 10^-8 M; 70 hr,98
same,T/C Value on MCF-7 Cell Line,[4]; Table 18-1; 10^-8 M; 120 hr,95
same,T/C value on MXT cell line,"[5]; 3 × 10^-8 M, 26 hr",90
same,T/C value on MXT cell line,"[5]; 3 × 10^-8 M, 50 hr",60
same,T/C value on MXT cell line,"[5]; 10^-7 M, 26 hr",59
same,T/C value on MXT cell line,"[5]; 10^-7 M, 50 hr",43
same,T/C value on MXT cell line,"[5]; 10^-8 M, 26 hr",85
same,T/C value on MXT cell line,"[5]; 10^-8 M, 50 hr",74
same,T/C Value,"[6]; 3 × 10^-7 M, incubation 66 h",15
same,T/C Value,"[6]; 3 × 10^-7 M, incubation 95 h",10
same,T/C Value,"[6]; 3 × 10^-7 M, incubation 137 h",7
same,T/C Value,"[6]; 3 × 10^-8 M, incubation 66 h",88
same,T/C Value,"[6]; 3 × 10^-8 M, incubation 95 h",73
same,T/C Value,"[6]; 3 × 10^-8 M, incubation 137 h",49
same,T/C Value,"[6]; 10^-6 M, incubation 66 h",-7
same,T/C Value,"[6]; 10^-6 M, incubation 95 h",-6
same,T/C Value,"[6]; 10^-6 M, incubation 137 h",-4
same,T/C Value,"[6]; 10^-7 M, incubation 66 h",52
same,T/C Value,"[6]; 10^-7 M, incubation 95 h",32
same,T/C Value,"[6]; 10^-7 M, incubation 137 h",20
same,Average survival,[7],20 days
same,Average survival,[7]; listed as DOX,20.0 days
same,Eradication of the tumor,"[7]; toxic dose, total amount 1560 nmol",could not eradicate the tumor
"COc1cccc2c1C(=O)c1c(O)c3c(c(O)c1C2=O)C[C@@](O)(C(=O)CO)C[C@@H]3O[C@H]1C[C@H](N2CCCC2)[C@H](O)[C@H](C)O1.O=C(O)C(F)(F)F [Compound Q2, 3'-deamino-3'-(pyrrolidine-1""-yl)doxorubicin]",T/C Value,[4]; [16],-26
same,T/C Value,[4]; [17],-19
same,T/C Value,[4]; [18],25
same,T/C Value,[4]; [19],17
same,T/C Value,[4]; [20],97
same,T/C Value,[4]; [21],94
same,Effect on tumor growth,[8]; 20 nmol daily dose for 17 days,only a moderate inhibitory effect on tumor growth
same,Mean survival,[8]; 40 nmol dose,14.6 days
same,Toxicity,[8]; 40 nmol dose,toxic
same,Effect on tumor growth,[9]; [22],strong inhibitory effect on tumor growth
same,Mean survival after transplantation,[9]; [22],17.9 days
same,Mean tumor volume on day 10,[9]; [22],153 mm^3
same,Mean tumor volume on day 14,[9]; [22],144 mm^3
same,Mean tumor volume on day 18,[9]; [22],137 mm^3
same,Toxicity,[9]; daily dose of 30 nmol i.p. for 12 days,severe toxicity
